Among the data in ChEMBL document CHEMBL1130653, “Derivatization of the C12-C13 functional groups of epothilones A, B and C” (Bioorg Med Chem Lett, 1998) are IC50 values, retold here.

Molecules are shown by their SMILES. Converted amounts (≈) assume the structure as drawn.

A short description of one experiment: Cytotoxicity against L929 fibroblast cell line; Weak cytotoxic activity. The class given is functional, cell-based, Mus musculus.
Consider `C/C(=C\c1csc(C)n1)[C@H]1C[C@H]2OCC[C@H](O)C(C)(C)C(=O)[C@H](C)[C@@H](O)[C@@H](C)CCC[C@H]2O1`, for which the IC50 entry was “Weak cytotoxic activity”.
Turning to `C/C(=C\c1csc(C)n1)[C@@H]1C[C@@H](O)[C@@H](O)CCC[C@H](C)[C@H](O)[C@@H](C)C(=O)C(C)(C)C(O)CC(=O)O1` (stereo partly drawn), the IC50 result is “Weak cytotoxic activity”.
On to `C/C(=C\c1csc(C)n1)[C@@H]1C[C@H](O)[C@@](C)(Cl)CCC[C@H](C)[C@H](O)[C@@H](C)C(=O)C(C)(C)[C@@H](O)CC(=O)O1`, for which the IC50 result is reported as “Weak cytotoxic activity”.
`C/C(=C\c1csc(C)n1)[C@@H]1C[C@@H]2O[C@]2(C)CCC[C@H](C)[C@H](O)[C@@H](C)C(=O)C(C)(C)[C@@H](O)CC(=O)O1` [PATUPILONE]: the IC50 result is reported as “Weak cytotoxic activity”.
On the same count and under the same terms, for `C/C(=C\c1csc(C)n1)[C@H]1C[C@H]2OC(=O)C[C@H](O)C(C)(C)C(=O)[C@H](C)[C@@H](O)[C@@H](C)CCC[C@H]2O1` the value was “Weak cytotoxic activity”; for `C/C(=C\c1csc(C)n1)[C@@H]1C[C@H]2OCC[C@H](O)C(C)(C)C(=O)[C@H](C)[C@@H](O)[C@@H](C)CCC[C@H]2O1`, “Weak cytotoxic activity”.
Turning to `Cc1nc(CC(C)C(O)C[C@H]2OC(=O)C[C@H](O)C(C)(C)C(=O)[C@H](C)[C@@H](O)[C@@H](C)CCC[C@H]2O)cs1` (stereo partly drawn), the IC50 entry is on record as “Weak cytotoxic activity”.
In the case of `C/C(=C\c1csc(C)n1)[C@@H]1CCCCCC[C@H](C)[C@H](O)[C@@H](C)C(=O)C(C)(C)C(O)CC(=O)O1` (stereo partly drawn), the IC50 result is “Weak cytotoxic activity”.
Take `C/C(=C\c1csc(C)n1)[C@@H]1C[C@H](O)[C@@](C)(O)CCC[C@H](C)[C@H](O)[C@@H](C)C(=O)C(C)(C)C(O)CC(=O)O1` (stereo partly drawn): the IC50 result is recorded as “Weak cytotoxic activity”.
As for `C/C(=C\c1csc(C)n1)[C@@H]1C[C@@H]2O[C@@H]2CCC[C@H](C)[C@H](O)[C@@H](C)C(=O)C(C)(C)[C@@H](O)CC(=O)O1` [EPOTHILONE A], the IC50 result is “Weak cytotoxic activity”.
Regarding `C/C(=C\c1csc(C)n1)[C@H](O)C[C@H]1OC(=O)C[C@H](O)C(C)(C)C(=O)[C@H](C)[C@@H](O)[C@@H](C)CCC[C@@]1(C)O`, the IC50 entry is “Weak cytotoxic activity”.
In the case of `C/C(=C\c1csc(C)n1)[C@@H]1C[C@@H]2OC(C)(C)O[C@@H]2CCC[C@H](C)[C@H](O)[C@@H](C)C(=O)C(C)(C)C(O)CC(=O)O1` (stereo partly drawn), the IC50 result is “Weak cytotoxic activity”.
`C/C(=C\c1csc(C)n1)[C@@H]1C[C@@H](Cl)[C@H](O)CCC[C@H](C)[C@H](O)[C@@H](C)C(=O)C(C)(C)[C@@H](O)CC(=O)O1`: the IC50 entry is recorded as “Weak cytotoxic activity”.
As to `C/C(=C\c1csc(C)n1)[C@@H]1C[C@H](O)[C@@H](Cl)CCC[C@H](C)[C@H](O)[C@@H](C)C(=O)C(C)(C)[C@@H](O)CC(=O)O1`, the IC50 entry was “Weak cytotoxic activity”.
Take `C/C(=C\c1csc(C)n1)[C@@H]1C[C@H]2OC(=O)C[C@H](O)C(C)(C)C(=O)[C@H](C)[C@@H](O)[C@@H](C)CCC[C@H]2O1`: the IC50 result was “Weak cytotoxic activity”.
As for `C/C(=C\c1csc(C)n1)[C@@H]1C[C@@H](O)[C@H](O)CCC[C@H](C)[C@H](O)[C@@H](C)C(=O)C(C)(C)C(O)CC(=O)O1` (stereo partly drawn), the IC50 entry is given as “Weak cytotoxic activity”.
Take `COC(C[C@H]1OC(=O)C[C@H](O)C(C)(C)C(=O)[C@H](C)[C@@H](O)[C@@H](C)CCC[C@H]1O)C(C)Cc1csc(C)n1` (stereo partly drawn): the IC50 entry is “Weak cytotoxic activity”.
In the case of `C/C(=C\c1csc(C)n1)[C@@H]1C[C@H](O)[C@H](O)CCC[C@H](C)[C@H](O)[C@@H](C)C(=O)C(C)(C)C(O)CC(=O)O1` (stereo partly drawn), the IC50 result was “Weak cytotoxic activity”.
Turning to `C/C(=C\c1csc(C)n1)[C@@H]1C[C@H](O)[C@@]2(C)CCC[C@H](C)[C@H](O)[C@@H](C)C(=O)C(C)(C)C(CC(=O)O1)O2`, the IC50 entry is “Weak cytotoxic activity”.
As for `C/C(=C\c1csc(C)n1)[C@@H](O)C[C@H]1OC(=O)C[C@H](O)C(C)(C)C(=O)[C@H](C)[C@@H](O)[C@@H](C)CCC[C@@]1(C)O`, the IC50 entry is “Weak cytotoxic activity”.

The nature of a further experiment: Compound was tested for cytotoxicity against L929 fibroblast cell lines in mouse. The class given is functional, cell-based.
Turning to `C/C(=C\c1csc(C)n1)[C@@H]1CC(O)C(O)CCC[C@H](C)[C@H](O)[C@@H](C)C(=O)C(C)(C)[C@@H](O)CC(=O)O1` (stereo partly drawn), the IC50 is > 4 µg/mL.
Same read-out and setting: then `C/C(=C\c1csc(C)n1)[C@@H]1C/C=C\CCC[C@H](C)[C@H](O)[C@@H](C)C(=O)C(C)(C)[C@@H](O)CC(=O)O1` [EPOTHILONE C], with 0.1 µg/mL (≈ 0.209 µM); and `C/C(=C\c1csc(C)n1)[C@@H]1CC2OC(C)(C)OC2CCC[C@H](C)[C@H](O)[C@@H](C)C(=O)C(C)(C)[C@@H](O)CC(=O)O1` (stereo partly drawn), with 0.15 µg/mL (≈ 0.272 µM).

The term IC50 denotes the concentration that gives 50% inhibition. A low value points to higher potency.
